According to US20250353853A1, “FLAVIVIRUS INHIBITORS” (IRBM S.P.A., priority 2022, published 2025):
Structures can show the parent of a compound that is named as a salt.

Tested on: ZIKV replicon in Vero cells
Experiment: ZIKV Replication Inhibition Assay (replicon, NanoLuc)
Conditions: Zika virus, Vero, 72 h, read-out: Zika Replicon EC50

SMILES | EC50 [nM]
NC[C@@H](c1ccc(-c2cncnc2)cc1)[n+]1cc([N-]C(=O)Nc2cccc(C(F)(F)F)c2)on1 [Example 102, (R)-(3-(2-amino-1-(4-(pyrimidin-5-yl)phenyl)ethyl)-1,2,3-oxadiazol-3-ium-5-yl)((3-(trifluoromethyl)phenyl)carbamoyl)amide formate] | 100 to 1000
O=C([N-]c1c[n+](Cc2ccc(-c3cncnc3)nc2)no1)Nc1cccc(C(F)(F)F)c1 [Example 103, (3-((6-(pyrimidin-5-yl)pyridin-3-yl)methyl)-1,2,3-oxadiazol-3-ium-5-yl)((3-(trifluoromethyl)phenyl)carbamoyl)amide] | 100 to 1000
Cc1noc(C)c1-c1ccc(C[n+]2cc([N-]C(=O)Nc3cccc(C(F)(F)F)c3)on2)cn1 [Example 104, (3-((6-(3,5-dimethylisoxazol-4-yl)pyridin-3-yl)methyl)-1,2,3-oxadiazol-3-ium-5-yl)((3-(trifluoromethyl)phenyl)carbamoyl)amide] | < 100
Cc1ncc(-c2ccc(C[n+]3cc([N-]C(=O)Nc4cccc(C(F)(F)F)c4)on3)cc2)n1C [Example 105, (3-(4-(1,2-dimethyl-1H-imidazol-5-yl)benzyl)-1,2,3-oxadiazol-3-ium-5-yl)((3-(trifluoromethyl)phenyl)carbamoyl)amide] | 100 to 1000
N#Cc1ncncc1-c1ccc(C[n+]2cc([N-]C(=O)Nc3cccc(C(F)(F)F)c3)on2)cc1 [Example 106, (3-(4-(4-cyanopyrimidin-5-yl)benzyl)-1,2,3-oxadiazol-3-ium-5-yl)((3-(trifluoromethyl)phenyl)carbamoyl)amide] | 100 to 1000
O=C([N-]c1c[n+](Cc2ccc(-c3c(F)nc[nH]c3=O)cc2)no1)Nc1cccc(C(F)(F)F)c1 [Example 107, (3-(4-(4-fluoro-6-oxo-1,6-dihydropyrimidin-5-yl)benzyl)-1,2,3-oxadiazol-3-ium-5-yl)((3-(trifluoromethyl)phenyl)carbamoyl)amide] | 1000 to 20000
O=C([N-]c1c[n+](Cc2ccc(-c3cncnc3)cn2)no1)Nc1cccc(C(F)(F)F)c1 [Example 108, (3-((5-(pyrimidin-5-yl)pyridin-2-yl)methyl)-1,2,3-oxadiazol-3-ium-5-yl)((3-(trifluoromethyl)phenyl)carbamoyl)amide] | 100 to 1000
Cc1noc(C)c1-c1ccc(C[n+]2cc([N-]C(=O)Nc3cccc(C(F)(F)F)c3)on2)nc1 [Example 109, (3-((5-(3,5-dimethylisoxazol-4-yl)pyridin-2-yl)methyl)-1,2,3-oxadiazol-3-ium-5-yl)((3-(trifluoromethyl)phenyl)carbamoyl)amide] | < 100
Cc1ncncc1-c1csc(C[n+]2cc([N-]C(=O)Nc3cccc(C(F)(F)F)c3)on2)c1 [Example 110, (3-((4-(4-methylpyrimidin-5-yl)thiophen-2-yl)methyl)-1,2,3-oxadiazol-3-ium-5-yl)((3-(trifluoromethyl)phenyl)carbamoyl)amide] | 100 to 1000
COc1ncnc(C)c1-c1ccc(C[n+]2cc([N-]C(=O)Nc3cccc(C(F)(F)F)c3)on2)cc1 [Example 111, (3-(4-(4-methoxy-6-methylpyrimidin-5-yl)benzyl)-1,2,3-oxadiazol-3-ium-5-yl)((3-(trifluoromethyl)phenyl)carbamoyl)amide] | < 100
Cc1ncnc(OCCO)c1-c1ccc(C[n+]2cc([N-]C(=O)Nc3cccc(C(F)(F)F)c3)on2)cc1 [Example 112, (3-(4-(4-(2-hydroxyethoxy)-6-methylpyrimidin-5-yl)benzyl)-1,2,3-oxadiazol-3-ium-5-yl)((3-(trifluoromethyl)phenyl)carbamoyl)amide] | < 100
COc1ncc(-c2ccc(C[n+]3cc([N-]C(=O)Nc4cccc(Cl)c4)on3)cc2)c(C)n1 [Example 113, ((3-chlorophenyl)carbamoyl)(3-(4-(2-methoxy-4-methylpyrimidin-5-yl)benzyl)-1,2,3-oxadiazol-3-ium-5-yl)amide] | 100 to 1000
